Peptide text beside a SMILES is read from it. * marks the point of attachment. Boc = CC(C)(C)OC(=O)*; NHBn = c1ccc(CN*)cc1; Bn = c1ccc(C*)cc1
Key:
Type in all cases: biochemical
[1] = target: T1, rabbit 20S proteasome, post-acid (PA) activity (Oryctolagus cuniculus, UniProt A0A5F9DQW2); experiment: Rabbit 20S proteasome fluorescent assay, post-acid activity (Z-LLE-βNA); conditions: pH 7.5, 30° C.; for PA % inhibition (at 100 μM): 100 μM compound
T1 construct: other: 100 μM compound, pH 7.5, 30° C; other: pH 7.5, 30° C
T1 sequence (A0A5F9DQW2 1-212): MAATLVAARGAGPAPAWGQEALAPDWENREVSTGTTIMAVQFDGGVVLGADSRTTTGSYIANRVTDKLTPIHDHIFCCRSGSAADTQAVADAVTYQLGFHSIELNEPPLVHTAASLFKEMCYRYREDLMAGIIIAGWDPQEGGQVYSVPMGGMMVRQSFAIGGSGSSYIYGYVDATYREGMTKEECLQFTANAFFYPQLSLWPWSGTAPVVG
Protocol: (§1) 20S proteasome from rabbit reticulocyte was from commercial source (Alexis Biochemicals)
(§2) Semi-automatic fluorescent assays using Suc-LLVY-amc (SEQ ID NO: 2) for chymotrypsin-like activity, Z-LLE-SNA for post-acid activity and Boc-LLR-amc for trypsin-like activity of proteasome were performed at pH 7.5 and 30° C. using BMG Fluostar microplate reader (Suc=succinyl; amc=7-amino-4-methylcoumarin; Z=benzyloxycarbonyl; NA=2-naphtylamine; Boc=tert-butoxycarbonyl). The buffers were: 20 mM Tris, 1 mM DTT, 10% glycerol, 3% (v/v) DMSO (ChT-L and PA activities); 20 mM Tris, 1 mM DTT, 10% glycerol, 3% (v/v) DMSO. Studied compounds were dissolved in DMSO prior dissolution in the buffer. Proteasome was incubated for 15 min at 30° C. in the presence of the studied compound (0.1-100 μM). A control assay in the absence of tested compounds contained DMSO at the same concentration (3%, v/v). The fluorogenic proteasome substrate was then added and the hydrolysis of the appropriate fluorescent substrate was monitored for 1 h (λexc=360, λem=465 nm for amc substrates and λexc=340, λem=405 nm for the βNA substrate). Initial rates determined in control experiments were considered to be 100% of the peptidasic activity; initial rates that were above 100% in the presence of a test compound were considered to be activations, while initial rates below 100% were considered to be inhibitions. For weak inhibitors, the percentage of inhibition at a reference concentration (100 μM) is reported. The results, expressed in % inhibition (or activation factor), were obtained by calculating the average of at least two independent experiments, the variability was less than 10%. The inhibitory activity of more efficient compounds are expressed as IC50 calculated by fitting the experimental data to the equation 1: % Inhibition=100 [I]0/(IC50+[I]0)=100 (v0−vi/v0), or equation 2: % Inhibition=100 [I]0^nH/(IC50^nH+[I]0^nH), nH is the Hill number. v0 and vi are the initial rates in the absence and in the presence of inhibitor. A Dixon plot has been used to determine the inhibition constant Ki for competitive inhibition by compound A215. The reversible character of inhibition or activation was determined by measuring the activity of treated enzyme after the inhibitor molecule has been withdrawn from the reaction medium.
(§3) Inhibition of Rabbit 20 S Proteasome (pH=7.5, 30° C.)
(§4) Activation of Rabbit 20 S Proteasome (pH=7.5, 30° C., [Compound]=100 μM)

[2] = target: T2, rabbit 20S proteasome, chymotrypsin-like (CT-L) activity (Oryctolagus cuniculus, UniProt G1T4Q9); experiment: Rabbit 20S proteasome fluorescent assay, chymotrypsin-like activity (Suc-LLVY-amc); conditions: 100 μM compound, pH 7.5, 30° C.
T2 construct: other: 100 μM compound, pH 7.5, 30° C; other: pH 7.5, 30° C; CT-L Ki
T2 sequence (G1T4Q9 1-263): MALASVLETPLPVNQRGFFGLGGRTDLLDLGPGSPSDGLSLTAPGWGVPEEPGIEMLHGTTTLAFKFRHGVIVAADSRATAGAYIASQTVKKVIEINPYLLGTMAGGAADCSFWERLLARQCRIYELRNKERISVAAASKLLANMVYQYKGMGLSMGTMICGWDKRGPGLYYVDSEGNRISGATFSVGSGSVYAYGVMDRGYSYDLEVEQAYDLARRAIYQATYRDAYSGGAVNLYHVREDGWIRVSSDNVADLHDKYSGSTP
Protocol: as §1, §2, §3, §4

[3] = test system: rabbit 20S proteasome, trypsin-like (T-L) activity; experiment: Rabbit 20S proteasome fluorescent assay, trypsin-like activity (Boc-LLR-amc); conditions: [Compound]=100 μM, pH 7.5, 30° C.
Protocol: as §1, §2, §3, §4

PA % inhibition (at 100 μM) [1] [%] | inhibition at 100 µM [2] [%] | SMILES | T-L Activation factor [3] | IC50 [1] [µM]
32 | – | COC(=O)[C@H](Cc1c[nH]c2c(Br)cccc12)NC(=O)[C@H](C)NC(=O)[C@H](Cc1ccc(OCc2ccccc2)c(I)c1)NC(=O)OC(C)(C)C [A248, N-Boc-3-iodo-Tyr(Bn)-Ala-7-bromo-Trp-OMe] | – | –
60 | 38 | CNC(=O)[C@H](Cc1c[nH]c2c(Br)cccc12)NC(=O)[C@H](C)NC(=O)[C@H](Cc1ccc(OCc2ccccc2)c(I)c1)NC(=O)OC(C)(C)C [A254, N-Boc-3-iodo-Tyr(Bn)-Ala-7-bromo-Trp-NHMe] | – | –
– | – | COC(=O)[C@H](Cc1c[nH]c2c(Br)cccc12)NC(=O)[C@H](CC(C)C)NC(=O)[C@H](Cc1ccc(OCc2ccccc2)c(I)c1)NC(=O)OC(C)(C)C [A268, N-Boc-3-iodo-Tyr(Bn)-Leu-7-bromo-Trp-OMe] | 2 | –
17 | – | CCOC(=O)[C@H](Cc1c[nH]c2c(Br)cccc12)NC(=O)[C@H](CC(C)C)NC(=O)[C@H](Cc1ccc(OC)c(I)c1)NC(=O)OC(C)(C)C [A340, N-Boc-3-iodo-Tyr(Me)-Leu-7-bromo-Trp-OEt] | – | –
20 | – | COC(=O)[C@H](Cc1c[nH]c2c(Br)cccc12)NC(=O)[C@H](CC(C)C)NC(=O)[C@H](Cc1ccc(OC)c(I)c1)NC(=O)OC(C)(C)C [A363, N-Boc-3-iodo-Tyr(Me)-Leu-7-bromo-Trp-OMe] | 1.9 | –
38 | 28 | COC(=O)[C@H](Cc1c[nH]c2c(Br)cccc12)NC(=O)[C@H](C)NC(=O)[C@H](Cc1ccc(OC)c(I)c1)NC(=O)OC(C)(C)C [A385, N-Boc-3-iodo-Tyr(Me)-Ala-7-bromo-Trp-OMe] | – | –
32 | – | CC(C)C[C@H](NC(=O)[C@H](Cc1ccc(OCc2ccccc2)cc1)NC(=O)OC(C)(C)C)C(=O)N[C@@H](Cc1c[nH]c2ccccc12)C(=O)Nc1ccc(O)cc1 [A418P, N-Boc-Tyr(Bn)-Leu-Trp-NH(4-OH)Ph] | 1.6 | –
– | – | CC(C)(C)OC(=O)N[C@@H](Cc1ccc(OCc2ccccc2)cc1)C(=O)N[C@@H](CCCN(C(=N)NC(=O)OCc1ccccc1)C(=O)OCc1ccccc1)C(=O)N[C@@H](CC1C(=O)Nc2ccccc21)C(=O)Nc1ccccc1 (stereo partly shown) [CV11, Boc-Tyr(Bn)-Arg(Z)-2-Trp[O]—NHPh] | 1.7 | –
– | – | CC(C)(C)OC(=O)NCCC[C@H](NC(=O)[C@H](Cc1ccc(OCc2ccccc2)cc1)NC(=O)OC(C)(C)C)C(=O)N[C@@H](CC1C(=O)Nc2ccccc21)C(=O)Nc1ccccc1 (stereo partly shown) [CV12, Boc-Tyr(Bn)-Lys(Boc)-Trp[O]—NHPh] | 1.5 | 10.4
– | 12 | CC(C)(C)OC(=O)N[C@@H](Cc1ccc(OCc2ccccc2)cc1)C(=O)N[C@@H](CCCN(C(=N)NC(=O)OCc1ccccc1)C(=O)OCc1ccccc1)C(=O)N[C@@H](CC1C(=O)Nc2ccccc21)C(=O)NCc1ccccc1 (stereo partly shown) [NR16, Boc-Tyr(Bn)-Arg(Z)-2-Trp[O]—NHCH2Ph] | 8.2 | –
– | – | CC(C)(C)OC(=O)N[C@@H](Cc1ccc(OCc2ccccc2)cc1)C(=O)NCC(=O)N[C@@H](Cc1c[nH]c2ccccc12)C(=O)O [NR35, N-Boc-Tyr(Bn)-Gly-Trp-OH] (Boc-Tyr(Bn)-Gly-Trp-OH) | 1.8 | –
– | – | CCOC(=O)[C@H](Cc1c[nH]c2c(-c3cc(C[C@H](NC(=O)OC(C)(C)C)C(=O)N[C@@H](CC(C)C)C(=O)OC)ccc3OCc3ccccc3)cccc12)NC(=O)OCc1ccccc1 [SP221] | 1.4 | –
45 | – | C[C@H](NC(=O)[C@H](Cc1ccc(OCc2ccccc2)cc1)NC(=O)OC(C)(C)C)C(=O)N[C@@H](Cc1c[nH]c2ccccc12)C(=O)NCc1ccccc1 [SP304R, N-Boc-Tyr(Bn)-Ala-Trp-NHCCH2Ph] (Boc-Tyr(Bn)-Ala-Trp-NHBn) | 1.7 | –

SMILES | PA % inhibition (at 100 μM) [1] [%] | inhibition at 100 µM [2] [%] | T-L Activation factor [3] | IC50 [1] [µM]
C[C@H](NC(=O)[C@H](Cc1ccc(OCc2ccccc2)cc1)NC(=O)OC(C)(C)C)C(=O)N[C@@H](CC1C(=O)Nc2ccccc21)C(=O)Nc1ccccc1 (stereo partly shown) [CV13, Boc-Tyr(Bn)-Ala-Trp[O]—NHPh] | – | 32 | – | 3.9

— patent publication US7919468B2, “Compounds useful as modulators of the proteasome activity” (Centre National de la Recherche Scientifique (C.N.R.S.), priority 2005, dated 2011)
